Read-outs that look alike come from different tables or passages of the source.
Tests used:
[1] = system: lower eyelid of the rabbits; settings: rabbit, in vivo
Description: The composition is prepared by the combination of selenium disulfide (SeS2) in combination with Petrolatum base (and in the absence of surface acting agents). Compositions comprising various concentrations of selenium disulfide are prepared, such as 0.1 wt. %, 0.5 wt. %, 1 wt. %, 1.5 wt. %, 2 wt. %, and 2.5 wt. %.
Various compositions prepared as described above are administered to the eye or eyelid (e.g., margin thereof) of albino rabbits. Various compositions are administered to distinct cohorts using various treatment protocols, such as based on frequency of administration (e.g., once daily, twice daily, every other day, and once weekly) and volume of administration (e.g., <25 μL or >25 μL per administration). Compositions lacking selenium disulfide are administered to a separate cohort to establish a control.
Albino rabbits are evaluated, and an accurate volume of the composition is ejected from a device (e.g., micropipette) and is delivered to the lower eyelid of the rabbits (FIG. 2). […] In one example, the volume is ˜25 μL (equivalent to 20 mg in weight). The rabbits are examined daily.

[2] = system: lower eyelid of the right eye
Description: The eye was treated with lubricants and local NSAID, and the keratitis resolved within 48 hours.

lower eyelid = settings: rabbit, in vivo
Excerpt: On a subsequent study to Example 6, concentrations ranging from 0.5 wt. % to 2.5 wt. % were used on New-Zealand rabbits, once daily to twice weekly for 28 days.

[3] = 5 μL, twice-weekly or once-daily, 3 months
[4] = system: seborrheic blepharitis patients; settings: cited from earlier work
rabbit dermis = settings: in vivo; cited from earlier work

S=[Se]=S [SeS2, selenium disulfide]
animals with corneal staining [1]: 5/6 | clinical or microscopic findings [1]: no clinical or microscopic findings | signs of keratitis, including red and swollen eyelids [1]: all animals showed signs of keratitis | time until pain was reported ([2]; 2.5 wt. % SeS2 with petrolatum, 25 μL (20 mg), one healthy person): About 4 hours | finding on clinical examination ([2]; 2.5 wt. % SeS2 with petrolatum, 25 μL (20 mg), multiple punctate over the center exposed part of the cornea): keratitis was observed | time to resolution of keratitis ([2]; 2.5 wt. %, 25 μL, eye treated with lubricants and local NSAID): ≤ 48 h | ophthalmic observations compared with Example 6 (lower eyelid): safer | safety and tolerability (independent Data Review Committee) ([3]; 0.1 wt. %, nine patients): safe and well tolerated | safety and tolerability (independent Data Review Committee) ([3]; 0.5 wt. %, ten patients): safe and well tolerated | safety and tolerability (independent Data Review Committee) ([3]; 1 wt. %, nine patients): safe and well tolerated | tolerability of ointment on the lids ([4]; 0.5 weight percent ointment (Abbott), all patients complained of burning of the conjunctiva (Rychener)): too strong | epithelial keratitis ([4]; human, in vivo): 6 cases | epithelial keratitis persisting as long as a week ([4]; human, in vivo): 1 cases | epithelial keratitis persisting for a matter of days ([4]; human, in vivo): 2 cases | epithelial keratitis, transient ([4]; human, in vivo): 4 cases | keratitis, conjunctivitis with erythematous and swollen lids ([4]; human, in vivo): Two | patients developing moderately severe conjunctivitis ([4]; human, in vivo): 1% | side effect across the studies ([4]; human, in vivo): self-limiting keratitis | dermal irritation (rabbit dermis): did not appear to be irritant to rabbit dermis
